Laboratory results: PubChem BioAssay (NCI)
Values joined by “and” are separate entries in the source; they are usually repeats but may differ in a detail not shown here. Equal values may be shown once.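 How tested: cells in 96-well plates exposed to compound for 48 hours at five concentrations. The concentration for 50% growth inhibition is given as GI50. TGI: concentration producing complete growth inhibition.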

Tested on: KM12 colon
Assay: growth of human tumour cells (NCI), 48 h

| SMILES | TGI | GI50 [µM] |
| --- | --- | --- |
| N#CSc1nc[nH]c1C(N)=O | > 100 µM | – |
| C=CCn1c(=O)n(CC=C)c(=O)n(CC=C)c1=O | > 100 µM | – |
| COc1ccnc2c1C(=O)c1nc3ccccc3c3ccnc-2c13 | 0.588 µM | – |
| COC(=O)C(=C/c1ccc(OC)cc1)/C(C(=O)O)=C(/C)c1ccccc1 | > 100 µM | – |
| C=C1C(=O)O[C@H]2[C@H]1[C@@H](OC(=O)C=C(C)C)CC1=C[C@@H](C[C@@]3(C)O[C@@H]23)OC1=O | 15.7 µM and 29.7 µM | 10.4 |
| CCOC(=O)C(N=Nc1ccc(S(N)(=O)=O)cc1)C(C)=O (centres undefined) | > 100 µM | – |
| Cc1ccc(C2CC(c3ccco3)=NN2c2ccccc2)o1 (centres undefined) | > 100 µM | – |
| C/C(=C1/CCCC2(N=NCC2c2ccccc2)C1=O)c1ccccc1 (centres undefined) | 31.3 µM | – |
| CCN1CCN(c2ccc(Nc3ccnc4ccc5nn(C)nc5c34)cc2)CC1 | 24 µM | – |
| CC1=CC(C2/C(=N/O)C=C(C)CC2(C)C)C(O)C(C)(C)C1 (centres undefined) | 31.6 µM | – |
| OCC1OC(n2cnc3c2NC=NC[C@H]3O)C(O)C1O (some centres undefined) | > 450 µM | – |
| CC(=O)OC1CC2c3cccc4c3C(CC2N(C)C1=O)CN4C(=O)c1ccccc1 (centres undefined) | 55.8 µM | – |
| CNC(=S)N/N=C(C)\C(=N/NC(=S)NC)c1ccccc1 | > 100 µM | – |
| O=[N+]([O-])c1ccc(-n2nnc(C3=NCCCN3)c2-c2ccc(Cl)cc2)cc1 | > 100 µM | – |
| COc1cc2c(cc1OC)C(O)[C@H](Br)C(C)(C)O2 (some centres undefined) | > 100 µM | – |
| CCCCCC(C[N+]1(C)CCOCC1)C(=O)/C=C/c1ccccc1 (centres undefined) | 8.71 µM | – |
| COc1ccc(C[N+]23C(CC[C@H]2c2ccccc2)CC[C@H]3c2ccccc2)cc1 (some centres undefined) | 24.4 µM | – |
| CCOC(=O)C1(C(=O)OCC)CN(CC)CN(c2ccccc2)C1 | > 100 µM | – |
| CC(=O)OCC1OC(Nc2ncc(-c3ccc(C)cc3)s2)C(OC(C)=O)C(OC(C)=O)C1OC(C)=O (centres undefined) | > 94.1 µM | – |

Tested on: MALME-3M melanoma
Assay: growth of human tumour cells (NCI), 48 h

| SMILES | TGI | GI50 [µM] |
| --- | --- | --- |
| Cc1ccc2c(c1CCCC(C)(C)O)C(=O)C(=O)C(C(C)C)=C2O | > 100 µM | – |
| CC(=O)c1sc2c(c1OC(=O)c1cccs1)c(=O)n(-c1ccccc1)c(=S)n2-c1ccccc1 | 6.7 µM | – |
| C[C@]12CCC(=O)C=C1CC[C@@H]1C2CC[C@]2(C)c3nn(-c4ccc(F)cc4)nc3CC12 (some centres undefined) | > 100 µM | – |
| O=C1C(Cl)C(c2ccccc2)N1n1cnc2ccccc2c1=O (centres undefined) | > 100 µM | – |
| CN(C)C(=O)OCOC(=O)N(C)C | > 100 µM | – |
| O=C1NC(=O)C(CCO)(c2ccccc2)C(=O)N1 | > 100 µM | – |
| COc1ccc2c(c1)CC[C@@H]1[C@@H]2CC[C@]2(C)C(=O)/C(=C/c3ccc(OC)c(OC)c3)C[C@@H]12 | > 100 µM | – |
| Cn1ccc(C(=O)NCCOCCNC(=O)c2ccn(C)c(=O)c2O)c(O)c1=O | > 100 µM | – |
| Cc1cn(C2CC(ON3C(=O)c4ccccc4C3=O)C(CO)O2)c(=O)[nH]c1=O (centres undefined) | > 10 µM | – |
| N#CSc1nc[nH]c1C(N)=O | 56.6 µM | – |
| C=CCn1c(=O)n(CC=C)c(=O)n(CC=C)c1=O | > 100 µM | – |
| COc1ccnc2c1C(=O)c1nc3ccccc3c3ccnc-2c13 | 1.3 µM | – |
| CCCCN1C=CN2c3nc4cc(C)c(C)cc4n3C(C(=O)OC)=C(C(=O)OC)C12 (centres undefined) | > 100 µM | – |
| COC(=O)C(=C/c1ccc(OC)cc1)/C(C(=O)O)=C(/C)c1ccccc1 | > 100 µM | – |
| C=C1C(=O)O[C@H]2[C@H]1[C@@H](OC(=O)C=C(C)C)CC1=C[C@@H](C[C@@]3(C)O[C@@H]23)OC1=O | 22.6 µM and 8.1 µM | 3.22 |
| CCOC(=O)C(N=Nc1ccc(S(N)(=O)=O)cc1)C(C)=O (centres undefined) | > 100 µM | – |
| Cc1ccc(C2CC(c3ccco3)=NN2c2ccccc2)o1 (centres undefined) | > 100 µM | – |
| C/C(=C1/CCCC2(N=NCC2c2ccccc2)C1=O)c1ccccc1 (centres undefined) | 59.7 µM | – |
| CCN1CCN(c2ccc(Nc3ccnc4ccc5nn(C)nc5c34)cc2)CC1 | 30.8 µM | – |
| OCC1OC(n2cnc3c2NC=NC[C@H]3O)C(O)C1O (some centres undefined) | > 450 µM | – |
| c1cc(-c2ncc(-c3ccc4c(c3)CCCO4)o2)ccn1 | 50.8 µM | – |
| CNC(=S)N/N=C(C)\C(=N/NC(=S)NC)c1ccccc1 | > 100 µM | – |
| O=[N+]([O-])c1ccc(-n2nnc(C3=NCCCN3)c2-c2ccc(Cl)cc2)cc1 | > 100 µM | – |
| COc1cc2c(cc1OC)C(O)[C@H](Br)C(C)(C)O2 (some centres undefined) | > 100 µM | – |
| CCCCCC(C[N+]1(C)CCOCC1)C(=O)/C=C/c1ccccc1 (centres undefined) | 32 µM | – |
| COc1ccc(C[N+]23C(CC[C@H]2c2ccccc2)CC[C@H]3c2ccccc2)cc1 (some centres undefined) | 30.8 µM | – |
| CCOC(=O)C1(C(=O)OCC)CN(CC)CN(c2ccccc2)C1 | 69.2 µM | – |
| CC(=O)OCC1OC(Nc2ncc(-c3ccc(C)cc3)s2)C(OC(C)=O)C(OC(C)=O)C1OC(C)=O (centres undefined) | > 100 µM | – |

Tested on: MDA-MB-231 breast
Assay: growth of human tumour cells (NCI), 48 h

| SMILES | TGI [µM] |
| --- | --- |
| CC(=O)c1sc2c(c1OC(=O)c1cccs1)c(=O)n(-c1ccccc1)c(=S)n2-c1ccccc1 | 32.2 |
| C[C@]12CCC(=O)C=C1CC[C@@H]1C2CC[C@]2(C)c3nn(-c4ccc(F)cc4)nc3CC12 (some centres undefined) | > 100 |
| COc1ccc2c(c1)CC[C@@H]1[C@@H]2CC[C@]2(C)C(=O)/C(=C/c3ccc(OC)c(OC)c3)C[C@@H]12 | > 100 |
| Cn1ccc(C(=O)NCCOCCNC(=O)c2ccn(C)c(=O)c2O)c(O)c1=O | > 100 |
| N#CSc1nc[nH]c1C(N)=O | > 100 |
| COc1ccnc2c1C(=O)c1nc3ccccc3c3ccnc-2c13 | 3.87 |
| CC1=CC(C2/C(=N/O)C=C(C)CC2(C)C)C(O)C(C)(C)C1 (centres undefined) | 31.6 |
| c1cc(-c2ncc(-c3ccc4c(c3)CCCO4)o2)ccn1 | > 100 |
| CC(=O)OC1CC2c3cccc4c3C(CC2N(C)C1=O)CN4C(=O)c1ccccc1 (centres undefined) | 52.4 |
| CNC(=S)N/N=C(C)\C(=N/NC(=S)NC)c1ccccc1 | > 100 |
| COc1ccc(C[N+]23C(CC[C@H]2c2ccccc2)CC[C@H]3c2ccccc2)cc1 (some centres undefined) | 82.4 |

Tested on: NCI/ADR-RES ovarian
Assay: growth of human tumour cells (NCI), 48 h

| SMILES | TGI | GI50 [µM] |
| --- | --- | --- |
| CC(=O)c1sc2c(c1OC(=O)c1cccs1)c(=O)n(-c1ccccc1)c(=S)n2-c1ccccc1 | 43.3 µM | – |
| CN(C)C(=O)OCOC(=O)N(C)C | > 100 µM | – |
| O=C1NC(=O)C(CCO)(c2ccccc2)C(=O)N1 | > 100 µM | – |
| COc1ccc2c(c1)CC[C@@H]1[C@@H]2CC[C@]2(C)C(=O)/C(=C/c3ccc(OC)c(OC)c3)C[C@@H]12 | > 100 µM | – |
| Cn1ccc(C(=O)NCCOCCNC(=O)c2ccn(C)c(=O)c2O)c(O)c1=O | > 100 µM | – |
| Cc1cn(C2CC(ON3C(=O)c4ccccc4C3=O)C(CO)O2)c(=O)[nH]c1=O (centres undefined) | > 10 µM | – |
| N#CSc1nc[nH]c1C(N)=O | > 100 µM | – |
| COc1ccnc2c1C(=O)c1nc3ccccc3c3ccnc-2c13 | 0.147 µM | – |
| C=C1C(=O)O[C@H]2[C@H]1[C@@H](OC(=O)C=C(C)C)CC1=C[C@@H](C[C@@]3(C)O[C@@H]23)OC1=O | 6.18 µM and 13.4 µM | 3.89 |
| CC1=CC(C2/C(=N/O)C=C(C)CC2(C)C)C(O)C(C)(C)C1 (centres undefined) | 33.5 µM | – |
| OCC1OC(n2cnc3c2NC=NC[C@H]3O)C(O)C1O (some centres undefined) | > 450 µM | – |
| c1cc(-c2ncc(-c3ccc4c(c3)CCCO4)o2)ccn1 | 23.1 µM | – |
| CC(=O)OC1CC2c3cccc4c3C(CC2N(C)C1=O)CN4C(=O)c1ccccc1 (centres undefined) | 45.1 µM | – |
| CNC(=S)N/N=C(C)\C(=N/NC(=S)NC)c1ccccc1 | > 100 µM | – |
| CCOC(=O)C1(C(=O)OCC)CN(CC)CN(c2ccccc2)C1 | > 100 µM | – |
| CC(=O)OCC1OC(Nc2ncc(-c3ccc(C)cc3)s2)C(OC(C)=O)C(OC(C)=O)C1OC(C)=O (centres undefined) | 78 µM | – |

Tested on: SF-268 CNS
Assay: growth of human tumour cells (NCI), 48 h

| SMILES | TGI [µM] |
| --- | --- |
| Cc1ccc2c(c1CCCC(C)(C)O)C(=O)C(=O)C(C(C)C)=C2O | > 100 |
| CC(=O)c1sc2c(c1OC(=O)c1cccs1)c(=O)n(-c1ccccc1)c(=S)n2-c1ccccc1 | 51.5 |
